{
  "source": "patent US20200352918A1",
  "about": "“COMPOUNDS AND METHODS FOR TREATING OR PREVENTING FIBROSIS” (priority 2019, published 2020)",
  "assay_type_in_all_cases": "cell-based, human",
  "key": {"SSEA4+ cells": {"system": "SSEA4+ cells", "test": "FACS of SSEA4+ cells in the iFA model", "conditions": "AA5 treatment", "protocol": "For determination of various cell populations in the iFA model, the cells were dissociated using Accumax (Stem Cell Technologies) for 5 minutes, pelleted and resuspended in FACS buffer (3% Fetal Bovine Serum/PBS). 1×10^6 cells were incubated with a the appropriate conjugated antibody listed in Table 3 for 20 minutes at 4° C. under shaking conditions. The cells were washed with the FACS buffer and acquired using a flow cytometer (BD LSRII) and analysed using FACS Diva and FlowJo softwares."}, "iFA model [1]": {"system": "iFA model", "test": "Proliferation by EdU labeling in the iFA model", "conditions": "AA5-prevention vs DMSO, 6 h EdU", "protocol": "Cells were incubated with 10 μM EdU (Invitrogen) at specified time points of culture for 6 hrs, fixed with 4% PFA, and detected by staining with Alexa594-azide according to the manufacturer's instructions. The cells were additionally counterstained with Vimentin and/or α-SMA and DAPI."}, "iFA model [2]": {"system": "iFA model", "test": "In situ cell elasticity by atomic force microscopy in the iFA model", "conditions": "AA5 vs DMSO-treated iFA model", "protocol": "Tapping mode AFM using the Bruker BioScope Catalyst Atomic Force coupled with Zeiss LSMS Confocal Fluorescence Microscope was used on the cells at 37° C. in cell culture media. AFM deflection images of cells were used in the imaging experiment. In the force measurement, sharp silicon nitride AFM probes (tip radius, 20 nm) were employed (Bruker Corp., USA). The spring constants of AFM tips were calibrated to be 0.10-0.11 N m^−1 and deflection sensitivities were 45-50 nm V^−1, using Thermo K Calibration (Agilent Technologies, USA). The approaching/retracting speed of the AFM tip during the force curve measurement was 6 μm s^−1. Force-distance curves were recorded to obtain cell elasticity (Young's modulus, E) of individual cells. For each time point, at least 20 single cells, 20 cells at the base of the iFA and 20 cells at the tip of the scar were measured with over 15 force-distance curves per cell to obtain significant results. The Young's modulus was calculated via the Scanning Probe Image Processor (SPIP) software (Image Metrology, Denmark) by converting the force-distance curves to force-separation curves and fitting the Sneddon variation of the Hertz model, which describes conical tips indenting elastic samples."}},
  "note": "“Also recorded” adds a separate entry of the source.",
  "data": [
    {"smiles": "Cc1c(C(=O)Nc2nc3ccccc3s2)sc2nc3cc4c(cc3cc12)OCO4", "note": "[AA5]", "values": [
      {"measurement": "Percentages of SSEA4+ cells", "setting": "SSEA4+ cells", "value": "attenuated"},
      {"measurement": "Proliferation (EdU)", "setting": "iFA model [1]", "value": "no effect on proliferation; also recorded: did not display any significant difference in the proliferation rate"},
      {"measurement": "Cell stiffness", "setting": "iFA model [2]", "value": "significantly decreased"}
    ]}
  ]
}
